Values quoted from earlier work as cited in patent US9855261B2, “Polymeric compound having camptothecin compound and anti-cancer effect enhancer bound thereto, and use of same” (priority 2012, dated 2018).

Details: of its dose

share of dose excreted renally: 20-40%
Compound: CC[C@@]1(O)C(=O)OCc2c1cc1n(c2=O)Cc2cc3c(CN(C)C)c(O)ccc3nc2-1 [Topotecan]
